Assay results reported in ChEMBL document CHEMBL1128187, “1 alpha,25-dihydroxyvitamin D3 analogs featuring aromatic and heteroaromatic rings: design, synthesis, and preliminary biological testing” (1995).

Assays:
Assay type in all cases: functional
Rattus norvegicus [1] = organism: Rattus norvegicus; assay: Patch clamp determination of calcium current in rat Osteosarcoma cells at 50.0 nM
Rattus norvegicus [2] = organism: Rattus norvegicus; assay: Patch clamp determination of calcium current in rat Osteosarcoma cells at 0.5 nM
Rattus norvegicus [3] = organism: Rattus norvegicus; assay: Patch clamp determination of calcium current in rat Osteosarcoma cells at 5.0 nM

SMILES | Ca2+ current (Rattus norvegicus [1]) | Ca2+ current (Rattus norvegicus [2]) | Ca2+ current (Rattus norvegicus [3])
C[C@H](CCCC(C)(C)O)[C@H]1CC[C@H]2C(c3ccc(CO)c(CO)c3)=CCC[C@]12C | 7.03 mV | -0.08 mV | 1.45 mV
C=C1/C(=C\C=C2/CCC[C@]3(C)[C@@H]([C@H](C)CCCC(C)(C)O)CC[C@@H]23)C[C@@H](O)C[C@@H]1O [CALCITRIOL] | 10.2 mV | 5.73 mV | 9.79 mV
C[C@@H](COCCCC(C)(C)O)[C@H]1CC[C@H]2C(c3ccc(CO)c(CO)c3)=CCC[C@]12C | 0.63 mV | 0.02 mV | 0.15 mV
